{"source": "patent US20090123979A1", "about": "“Methods of reducing the inhibitory effect of a tannin on the enzymatic hydrolysis of cellulosic material” (Novozymes, Inc., priority 2007, published 2009)", "key": {"[1]": {"biological_target": "T1, Trichoderma reesei CEL5A endoglucanase II (Trichoderma reesei, UniProt P07982)", "T1 construct": "made in house", "T1 sequence (P07982 22-418)": "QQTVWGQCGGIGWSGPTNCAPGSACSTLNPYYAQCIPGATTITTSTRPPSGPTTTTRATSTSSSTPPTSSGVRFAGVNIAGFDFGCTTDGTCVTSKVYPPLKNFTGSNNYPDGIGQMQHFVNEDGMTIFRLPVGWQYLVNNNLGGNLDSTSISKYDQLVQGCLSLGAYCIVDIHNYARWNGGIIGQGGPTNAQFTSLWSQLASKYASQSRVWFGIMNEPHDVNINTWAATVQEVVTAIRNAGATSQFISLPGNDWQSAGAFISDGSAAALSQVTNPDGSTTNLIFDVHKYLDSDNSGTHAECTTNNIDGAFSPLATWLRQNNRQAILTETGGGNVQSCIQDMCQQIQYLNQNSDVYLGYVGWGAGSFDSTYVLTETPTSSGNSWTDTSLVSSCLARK", "assay": "CMC hydrolysis by CEL5A endoglucanase II with tannic acid", "assay_type": "biochemical", "conditions": "1 mM tannic acid, 50° C., 4 hours", "description": "The effect of tannic acid on Trichoderma reesei CEL7B endoglucanase I and Trichoderma reesei CEL5A endoglucanase II was also evaluated using carboxymethylcellulose (CMC) as substrate. The hydrolysis reactions were conducted in duplicate using the “mini-plate-scale” hydrolysis procedure described in Example 33, except that 1 mM tannic acid and 10 to 20 g of carboxymethylcellulose (CMC) and 1 to 20 mg of enzyme per liter 50 mM sodium acetate pH 5.0 were used at 50° C. for 4 hours. Soluble reducing sugars were analyzed by a p-hydroxybenzoic acid hydrazide (PHBAH) assay according to the method of Lever, 1972, Anal. Biochem. 47: 273-279, instead of by HPLC as described in Examples 30 and 33. Reactions without the addition of the enzymes served as controls to correct background absorption. Spectrophotometric measurements were performed using a SPECTRAMAX™ 340PC reader (Molecular Devices Corp., Sunnyvale, Calif., USA) with COSTAR® 96-well microplates (Cole-Parmer Instrument Co, Vernon Hills, Ill., USA)."}, "[2]": {"biological_target": "T2, Trichoderma reesei CEL7B endoglucanase I (Trichoderma reesei, UniProt P07981)", "T2 construct": "made in house; host or cells: Aspergillus oryzae JaL250", "T2 sequence (P07981 23-459)": "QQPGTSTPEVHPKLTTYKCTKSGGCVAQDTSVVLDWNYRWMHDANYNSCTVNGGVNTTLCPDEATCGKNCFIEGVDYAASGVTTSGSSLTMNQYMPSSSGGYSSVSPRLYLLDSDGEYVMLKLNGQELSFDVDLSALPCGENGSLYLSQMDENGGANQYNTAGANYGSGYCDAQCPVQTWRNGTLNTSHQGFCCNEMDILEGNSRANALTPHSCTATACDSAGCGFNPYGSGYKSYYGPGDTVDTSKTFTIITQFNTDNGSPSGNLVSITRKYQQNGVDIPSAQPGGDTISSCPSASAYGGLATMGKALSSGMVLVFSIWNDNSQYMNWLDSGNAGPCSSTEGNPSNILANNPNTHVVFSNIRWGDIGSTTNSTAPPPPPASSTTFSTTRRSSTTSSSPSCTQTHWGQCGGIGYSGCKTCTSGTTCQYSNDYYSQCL", "assay": "PASC hydrolysis by CEL7B endoglucanase I with tannic acid", "assay_type": "biochemical", "description": "(§1) The inhibitory effect of tannic acid was determined on Trichoderma reesei CEL7A cellobiohydrolase 1, Trichoderma reesei CEL6A cellobiohydrolase II, Trichoderma reesei CEL7B endoglucanase 1, and Trichoderma reesei CEL5A endoglucanase II using PASC as substrate.\n(§2) To quantify the inhibition, tannic acid was evaluated in the hydrolysis of PASC."}, "[3]": {"biological_target": "T3, Trichoderma reesei CEL7A cellobiohydrolase I (Trichoderma reesei, UniProt P62694, INS458P/R459P)", "T3 construct": "made in house", "T3 sequence (P62694 other isoform, or with tags, fused parts or gaps INS458P/R459P)": "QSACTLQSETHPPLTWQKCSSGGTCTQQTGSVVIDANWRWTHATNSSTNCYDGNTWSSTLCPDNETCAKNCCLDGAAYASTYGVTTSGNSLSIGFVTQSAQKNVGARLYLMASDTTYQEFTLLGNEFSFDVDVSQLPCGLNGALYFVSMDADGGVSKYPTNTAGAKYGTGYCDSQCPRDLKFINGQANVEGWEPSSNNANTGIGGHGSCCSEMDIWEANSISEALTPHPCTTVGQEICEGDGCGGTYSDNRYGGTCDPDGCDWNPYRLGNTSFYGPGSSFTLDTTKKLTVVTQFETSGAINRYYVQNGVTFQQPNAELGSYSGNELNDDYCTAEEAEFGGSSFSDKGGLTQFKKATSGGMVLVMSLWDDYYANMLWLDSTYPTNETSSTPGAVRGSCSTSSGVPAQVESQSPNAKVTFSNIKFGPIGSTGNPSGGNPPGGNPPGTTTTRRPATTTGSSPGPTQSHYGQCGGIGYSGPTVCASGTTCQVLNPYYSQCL", "assay": "PASC hydrolysis by CEL7A cellobiohydrolase I with tannic acid", "assay_type": "biochemical", "description": "as §1, §2"}, "[4]": {"biological_target": "T4, Trichoderma reesei CEL6A cellobiohydrolase II (Trichoderma reesei, UniProt P07987, P359R)", "T4 construct": "made in house; host or cells: Fusarium venenatum", "T4 sequence (P07987 25-471 P359R)": "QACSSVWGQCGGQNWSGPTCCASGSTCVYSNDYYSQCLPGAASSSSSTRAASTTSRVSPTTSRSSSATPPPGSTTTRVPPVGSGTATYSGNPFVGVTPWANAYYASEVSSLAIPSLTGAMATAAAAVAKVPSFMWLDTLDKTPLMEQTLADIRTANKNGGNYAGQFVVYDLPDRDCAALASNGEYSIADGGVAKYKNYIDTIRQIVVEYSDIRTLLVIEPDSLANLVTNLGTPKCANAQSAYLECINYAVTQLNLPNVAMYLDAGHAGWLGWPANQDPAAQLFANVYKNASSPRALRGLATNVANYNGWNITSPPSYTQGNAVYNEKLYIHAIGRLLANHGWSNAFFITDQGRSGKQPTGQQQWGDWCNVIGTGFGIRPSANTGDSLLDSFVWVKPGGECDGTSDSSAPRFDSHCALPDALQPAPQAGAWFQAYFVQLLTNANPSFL", "assay": "PASC hydrolysis by CEL6A cellobiohydrolase II with tannic acid", "assay_type": "biochemical", "conditions": "1 mM tannic acid; 2 g PASC per liter, over 4 hours", "description": "as §1"}, "[5]": {"biological_target": "T5, Aspergillus oryzae CEL3A beta-glucosidase (Aspergillus oryzae, UniProt Q2UUD6)", "T5 construct": "made in house", "T5 sequence (Q2UUD6 20-861)": "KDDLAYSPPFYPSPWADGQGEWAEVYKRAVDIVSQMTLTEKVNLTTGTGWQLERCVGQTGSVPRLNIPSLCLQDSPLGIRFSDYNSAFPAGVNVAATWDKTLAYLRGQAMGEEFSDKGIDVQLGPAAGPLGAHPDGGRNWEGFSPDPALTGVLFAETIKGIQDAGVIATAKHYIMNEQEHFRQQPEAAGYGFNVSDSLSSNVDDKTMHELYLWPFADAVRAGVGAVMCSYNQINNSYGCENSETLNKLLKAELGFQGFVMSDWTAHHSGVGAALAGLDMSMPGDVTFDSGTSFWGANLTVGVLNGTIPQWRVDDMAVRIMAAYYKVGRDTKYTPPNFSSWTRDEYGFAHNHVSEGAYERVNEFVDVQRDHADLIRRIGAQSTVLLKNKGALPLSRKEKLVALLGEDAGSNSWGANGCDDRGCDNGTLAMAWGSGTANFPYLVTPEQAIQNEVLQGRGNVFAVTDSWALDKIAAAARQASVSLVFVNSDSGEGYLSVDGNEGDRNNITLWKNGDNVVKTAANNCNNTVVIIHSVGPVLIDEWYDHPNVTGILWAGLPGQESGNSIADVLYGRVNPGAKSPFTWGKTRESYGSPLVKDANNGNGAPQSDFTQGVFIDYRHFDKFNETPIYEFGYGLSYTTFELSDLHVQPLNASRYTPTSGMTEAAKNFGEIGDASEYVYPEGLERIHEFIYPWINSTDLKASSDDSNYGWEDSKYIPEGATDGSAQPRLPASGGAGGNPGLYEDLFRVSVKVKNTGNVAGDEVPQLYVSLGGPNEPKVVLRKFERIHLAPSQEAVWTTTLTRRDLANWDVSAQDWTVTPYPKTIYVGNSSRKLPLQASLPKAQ", "assay": "Cellobiose hydrolysis by CEL3A beta-glucosidase with tannic acid", "assay_type": "biochemical", "description": "The effect of tannic acid on Aspergillus oryzae CEL3A beta-glucosidase was also evaluated using a series of “mini-scale” hydrolysis reactions according to the procedure described in Example 30, except that 1 mM tannic acid (corresponding to 10 mM galloyl and 1 mM glucosyl constituents) and 2 g of cellobiose and 1 mg of beta-glucosidase per liter of 39 mM sodium acetate pH 5.0 were used. Reactions without the addition of the tannic acid served as controls. The reaction was monitored by HPLC as described in Example 30.\nTannic acid was also evaluated in the hydrolysis of cellobiose."}, "[6]": {"tested_on": "Cellulolytic Enzyme Composition #1", "assay": "AVICEL hydrolysis by Cellulolytic Enzyme Composition #1 with added compounds", "assay_type": "biochemical, Trichoderma reesei", "conditions": "AVICEL pre-incubated with 1 mM tannic acid 1 hour at 50° C., then washed", "text": "(§3) Initial hydrolysis rates were obtained from the first two hydrolysis time points (i.e., soluble sugar measurements) (with <20% hydrolysis extent in general, rate=(hydrolysis difference)/(time difference)). Double-reciprocal plots (1/(initial rate) vs 1/[cellulose] as function of tannic acid concentration) indicated a “mixed” type inhibition, but their complexity prevented extraction of simple inhibitor constants. Initial rate vs tannic acid concentration yielded an I50 (inhibitor concentration leading to 50% loss of hydrolysis rate) of 0.2±0.1 or 0.27±0.07 mM on PASC or AVICEL® hydrolysis, respectively\n(§4) To examine where tannic acid exerted its inhibition, a series of hydrolysis reactions of AVICEL® by Cellulolytic Enzyme Composition #1 was performed in which AVICEL® and Cellulolytic Enzyme Composition #1 were used fresh or after pre-incubation with tannic acid. […] (with detectable precipitation seen), the pre-incubated Cellulolytic Enzyme Composition #1 was gel-filtered using BioSpin 6 desalting columns (Bio-Rad, Hercules, Calif., USA). […] Hydrolysis of untreated or buffer-only pre-incubated AVICEL® and Cellulolytic Enzyme Composition #1, with or without inhibitors, served as controls."}, "[7]": {"tested_on": "T6, Cellulolytic Enzyme Composition #1", "T6 construct": "other: PASC hydrolysis; mean ± SD; 0.01 g enzyme; Dixon plot linear regression intercept (1/Rate); other: AVICEL; rate from hydrolysis difference (%) at 0 and 6 hours; rate from hydrolysis difference; fused on or other part: The A. oryzae beta-glucosidase is the mature chain secreted behind the Humicola insolens endoglucanase V signal peptide, which is cleaved off", "assay": "AVICEL hydrolysis by Cellulolytic Enzyme Composition #1 with added compounds", "assay_type": "biochemical, Trichoderma reesei", "text": "as §3, §4"}, "[8]": {"conditions": "1 mM tannic acid, 2 g PASC per liter, over 4 hours"}, "[9]": {"conditions": "PASC, 0.1 to 0.7 mM tannic acid"}, "[10]": {"conditions": "25 g AVICEL, 0.25 g enzyme per liter, 1 mM tannic acid, or 5 mM ellagic acid or 10 mM methyl gallate plus 1 mM glucose pentaacetate"}, "[11]": {"conditions": "AVICEL, rate from hydrolysis difference (%) at 0 and 6 hours"}}, "data": [{"smiles": "O=C(OC[C@H]1O[C@@H](OC(=O)c2cc(O)c(O)c(OC(=O)c3cc(O)c(O)c(O)c3)c2)[C@H](OC(=O)c2cc(O)c(O)c(OC(=O)c3cc(O)c(O)c(O)c3)c2)[C@@H](OC(=O)c2cc(O)c(O)c(OC(=O)c3cc(O)c(O)c(O)c3)c2)[C@@H]1OC(=O)c1cc(O)c(O)c(OC(=O)c2cc(O)c(O)c(O)c2)c1)c1cc(O)c(O)c(OC(=O)c2cc(O)c(O)c(O)c2)c1", "note": "[tannic acid, Tannic acid]", "values": [{"measurement": "effect on CMC hydrolysis by CEL5A endoglucanase II", "setting": "[1]", "value": "significantly inhibited"}, {"measurement": "effect on PASC hydrolysis by CEL7B endoglucanase I", "setting": "[2]; [8]", "value": "significantly inhibited"}, {"measurement": "IC50", "setting": "[2]; PASC hydrolysis, mean ± SD, 0.04 g enzyme per liter, pH 5, 50° C., read-out: I50 for CEL7B EGI", "value": "300 ± 200", "unit": "µM"}, {"measurement": "type of inhibition (double reciprocal plots), CEL7B EGI", "setting": "[2]; [9]", "value": "mixed"}, {"measurement": "IC50", "setting": "[3]", "value": "~1", "unit": "mM"}, {"measurement": "effect on PASC hydrolysis by CEL7A cellobiohydrolase I", "setting": "[3]; [8]", "value": "significantly inhibited"}, {"measurement": "type of inhibition (double reciprocal plots), CEL7A CBHI", "setting": "[3]; [9]", "value": "mixed"}, {"measurement": "effect on PASC hydrolysis by CEL6A cellobiohydrolase II", "setting": "[4]", "value": "significantly inhibited"}, {"measurement": "effect on cellobiose hydrolysis by CEL3A beta-glucosidase", "setting": "[5]; 1 mM tannic acid, 2 g cellobiose and 1 mg beta-glucosidase per liter", "value": "significantly inhibited"}, {"measurement": "type of inhibition, CEL3A beta-glucosidase", "setting": "[5]; cellobiose hydrolysis", "value": "mixed"}, {"measurement": "IC50", "setting": "[5]; cellobiose hydrolysis, 0.001 g enzyme per liter, pH 5, 50° C., read-out: I50 for CEL3A beta-glucosidase", "value": "~800", "unit": "µM"}, {"measurement": "effect of pre-incubating AVICEL with inhibitor on hydrolysis", "setting": "[6]", "value": "did not affect the hydrolysis"}, {"measurement": "loss in initial rate of AVICEL hydrolysis", "setting": "[7]; [10]", "value": "~90", "unit": "%"}, {"measurement": "loss in the extent of AVICEL hydrolysis at day 8", "setting": "[7]; [10]", "value": "~70", "unit": "%"}, {"measurement": "Ki", "setting": "[7]; AVICEL hydrolysis, Cellulolytic Enzyme Composition #1, OPC in flavanone-equivalent subunits, read-out: inhibition constant Ki (x-intercept of Dixon plot)", "value": "~130", "unit": "µM"}, {"measurement": "IC50", "setting": "[7]; AVICEL hydrolysis, 0.01 g enzyme per liter, pH 5.0, 50° C., read-out: I50 (inhibitor concentration leading to 50% loss of hydrolysis rate)", "value": "270 ± 70", "unit": "µM"}, {"measurement": "Dixon plot linear regression intercept (1/Rate)", "setting": "[7]; [11]", "value": "0.045±0.017"}, {"measurement": "Dixon plot linear regression slope (1/Rate vs inhibitor concentration)", "setting": "[7]; [11]", "value": "0.356±0.033"}, {"measurement": "activity loss of pre-incubated Cellulolytic Enzyme Composition #1", "setting": "[7]; enzyme pre-incubated with 1 mM tannic acid 1 hour at 50° C., then gel-filtered", "value": "approximately 80%"}, {"measurement": "concentration dependence of inhibition of AVICEL hydrolysis", "setting": "[7]; tannic acid 0.05 mM to 1 mM, OPC 1 mM to 10 mM, 23 g AVICEL and 0.25 g enzyme per liter", "value": "increasingly inhibitory"}]}]}
